Values after ≈ are worked out from the molar mass of the structure shown. Read-outs that look alike come from different tables or passages of the source.
Experiments:
[1] = test system: N. gonorrhoeae CDC-0197; test: Liquid broth MIC in Fastidious broth; conditions: Neisseria gonorrhoeae
[2] = test system: A. baumannii CDC-0045; test: microbe, parasite or virus in culture; assay type: cell-based; conditions: Acinetobacter baumannii, CDC0045, read-out: MIC, A. baumannii CDC-0045
[3] = test system: A. baumannii ATCC 19606; test: microbe, parasite or virus in culture; assay type: cell-based; conditions: Acinetobacter baumannii, ATCC19606, read-out: MIC, A. baumannii ATCC 19606
[4] = molecular target: T1, PBP3 from Acinetobacter baumannii (ATCC 19606) (Acinetobacter baumannii, UniProt A0ABX6CK25); test: Bocillin-FL fluorescence polarization competition binding, A. baumannii PBP3; conditions: fluorescence polarization competition binding assay using Bocillin-FL; read-out: A. baumannii PBP3 Potency
T1 sequence (A0ABX6CK25 64-610): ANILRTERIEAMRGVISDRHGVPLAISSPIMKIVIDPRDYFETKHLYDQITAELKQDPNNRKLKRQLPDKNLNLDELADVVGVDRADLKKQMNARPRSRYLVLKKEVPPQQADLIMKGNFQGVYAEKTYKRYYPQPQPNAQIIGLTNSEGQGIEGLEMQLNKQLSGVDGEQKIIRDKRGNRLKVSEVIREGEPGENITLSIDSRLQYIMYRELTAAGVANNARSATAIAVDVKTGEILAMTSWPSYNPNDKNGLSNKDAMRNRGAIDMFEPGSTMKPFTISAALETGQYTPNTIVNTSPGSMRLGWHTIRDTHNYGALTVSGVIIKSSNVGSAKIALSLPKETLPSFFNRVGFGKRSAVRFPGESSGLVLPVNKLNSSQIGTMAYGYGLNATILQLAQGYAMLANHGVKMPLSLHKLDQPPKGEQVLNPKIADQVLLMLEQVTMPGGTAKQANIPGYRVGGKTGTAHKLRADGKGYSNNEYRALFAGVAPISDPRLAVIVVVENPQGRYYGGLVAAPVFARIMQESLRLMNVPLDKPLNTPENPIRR
Summary of the method: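 Purified PBPs pre-incubated with inhibitor (E. coli PBP3 1.5 μM, 30 min; P. aeruginosa PBP3 0.75 μM, A. baumannii PBP1a 1 μM and PBP3 0.2 μM, 15 min), then Bocillin-FL 0.1 μM (0.05 μM for PBP1a) added; FP read up to 60 min. EC50 = concentration halving bound Bocillin-FL.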

[5] = test system: A. baumannii 1258916; test: microbe, parasite or virus in culture; assay type: cell-based, Acinetobacter baumannii; conditions: Acinetobacter baumannii, 1258916, read-out: MIC, A. baumannii 1258916
[6] = test system: P. aeruginosa CDC-0090; test: microbe, parasite or virus in culture; assay type: cell-based; conditions: Pseudomonas aeruginosa, CDC0090, read-out: Minimum inhibitory concentration, P. aeruginosa CDC-0090
[7] = test system: N. gonorrhoeae WHO M; test: Liquid broth MIC in Fastidious broth; conditions: Neisseria gonorrhoeae
[8] = test system: N. gonorrhoeae WHO G; test: Liquid broth MIC in Fastidious broth; conditions: Neisseria gonorrhoeae
[9] = CDC0197, read-out: Minimum Inhibitory Concentration (MIC), N. gonorrhoeae CDC-0197
[10] = read-out: Minimum Inhibitory Concentration (MIC), N. gonorrhoeae WHO M
[11] = read-out: Minimum Inhibitory Concentration (MIC), N. gonorrhoeae WHO G
[12] = CDC0197, read-out: Minimum Inhibitory Concentration, CDC-0197
[13] = read-out: Minimum Inhibitory Concentration, WHO M
[14] = read-out: Minimum Inhibitory Concentration, WHO G

SMILES | MIC [1, 9] | MIC [2] | MIC [3] | IC50 [4] | MIC [5] | MIC [6] | MIC [7, 10] | MIC [8, 11] | MIC [1, 12] | MIC [7, 13] | MIC [8, 14]
CN(CCN1CCN(C(=O)N[C@@H](C(=O)N[C@H]2Cc3ccc(F)c(C(=O)O)c3OB2O)c2cc(F)c(O)c(O)c2Cl)C(=O)C1=O)Cc1cccnc1 [Example 201, (R)-3-((R)-2-(2-chloro-5-fluoro-3,4-dihydroxyphenyl)-2-(4-(2-(methyl(pyridin-3-ylmethyl)amino)ethyl)-2,3-dioxopiperazine-1-carboxamido)acetamido)-7-fluoro-2-hydroxy-3,4-dihydro-2H-benzo[e][1,2]oxaborinine-8-carboxylic acid] | > 64 µg/mL | < 1 µg/mL | < 1 µg/mL | < 10 µM | < 1 µg/mL | < 1 µg/mL | 4 to 8 µg/mL (≈ 5.47 to 10.9 µM) | 4 to 8 µg/mL (≈ 5.47 to 10.9 µM) | – | – | –
O=C(NCCCS(=O)(=O)N1CCN(C(=O)N[C@H](C(=O)N[C@H]2Cc3ccc(F)c(C(=O)O)c3OB2O)c2cc(F)c(O)c(O)c2Cl)C1=O)c1cccc(O)c1 [Example 270, (R)-3-((S)-2-(2-chloro-5-fluoro-3,4-dihydroxyphenyl)-2-(3-((3-(3-hydroxybenzamido)propyl)sulfonyl)-2-oxoimidazolidine-1-carboxamido)acetamido)-7-fluoro-2-hydroxy-3,4-dihydro-2H-benzo[e][1,2]oxaborinine-8-carboxylic acid] | – | 8 to 16 µg/mL (≈ 10.1 to 20.1 µM) | 2 to 4 µg/mL (≈ 2.51 to 5.03 µM) | < 10 µM | 8 to 16 µg/mL (≈ 10.1 to 20.1 µM) | 32 to 64 µg/mL (≈ 40.2 to 80.4 µM) | – | – | > 64 µg/mL | > 64 µg/mL | > 64 µg/mL
O=C(CN1CCN(C(=O)N[C@@H](C(=O)N[C@H]2Cc3ccc(F)c(C(=O)O)c3OB2O)c2cc(F)c(O)c(O)c2Cl)C(=O)C1=O)NCc1ccncc1 [Example 239, (R)-3-((R)-2-(2-chloro-5-fluoro-3,4-dihydroxyphenyl)-2-(2,3-dioxo-4-(2-oxo-2-((pyridin-4-ylmethyl)amino)ethyl)piperazine-1-carboxamido)acetamido)-7-fluoro-2-hydroxy-3,4-dihydro-2H-benzo[e][1,2]oxaborinine-8-carboxylic acid] | 16 to 32 µg/mL (≈ 21.9 to 43.8 µM) | < 1 µg/mL | < 1 µg/mL | < 10 µM | < 1 µg/mL | 2 to 4 µg/mL (≈ 2.74 to 5.47 µM) | 4 to 8 µg/mL (≈ 5.47 to 10.9 µM) | 4 to 8 µg/mL (≈ 5.47 to 10.9 µM) | – | – | –
O=C(CN1CCN(C(=O)NC(C(=O)N[C@H]2Cc3ccc(F)c(C(=O)O)c3OB2O)c2cc(F)c(O)c(O)c2Cl)C(=O)C1=O)Nc1ccc(O)cc1 (stereo partly drawn) [Example 230, (3R)-3-(2-(2-chloro-5-fluoro-3,4-dihydroxyphenyl)-2-(4-(2-((4-hydroxyphenyl)amino)-2-oxoethyl)-2,3-dioxopiperazine-1-carboxamido)acetamido)-7-fluoro-2-hydroxy-3,4-dihydro-2H-benzo[e][1,2]oxaborinine-8-carboxylic acid] | 16 to 32 µg/mL (≈ 21.9 to 43.7 µM) | < 1 µg/mL | < 1 µg/mL | < 10 µM | 2 to 4 µg/mL (≈ 2.73 to 5.47 µM) | 2 to 4 µg/mL (≈ 2.73 to 5.47 µM) | 4 to 8 µg/mL (≈ 5.47 to 10.9 µM) | 4 to 8 µg/mL (≈ 5.47 to 10.9 µM) | – | – | –
O=C(NCCCN1CCN(C(=O)NC(C(=O)N[C@H]2Cc3ccc(F)c(C(=O)O)c3OB2O)c2cc(F)c(O)c(O)c2Cl)C(=O)C1=O)c1cccc(O)c1 (stereo partly drawn) [Example 204, (3R)-3-(2-(2-chloro-5-fluoro-3,4-dihydroxyphenyl)-2-(4-(3-(3-hydroxybenzamido)propyl)-2,3-dioxopiperazine-1-carboxamido)acetamido)-7-fluoro-2-hydroxy-3,4-dihydro-2H-benzo[e][1,2]oxaborinine-8-carboxylic acid] | 16 to 32 µg/mL (≈ 21.1 to 42.1 µM) | < 1 µg/mL | < 1 µg/mL | < 10 µM | < 1 µg/mL | < 1 µg/mL | 4 to 8 µg/mL (≈ 5.26 to 10.5 µM) | 4 to 8 µg/mL (≈ 5.26 to 10.5 µM) | – | – | –
O=C(NCCN1CCN(C(=O)NC(C(=O)N[C@H]2Cc3ccc(F)c(C(=O)O)c3OB2O)c2cc(F)c(O)c(O)c2Cl)C(=O)C1=O)c1cccnc1 (stereo partly drawn) [Example 217, (3R)-3-(2-(2-chloro-5-fluoro-3,4-dihydroxyphenyl)-2-(4-(2-(nicotinamido)ethyl)-2,3-dioxopiperazine-1-carboxamido)acetamido)-7-fluoro-2-hydroxy-3,4-dihydro-2H-benzo[e][1,2]oxaborinine-8-carboxylic acid] | 16 to 32 µg/mL (≈ 21.9 to 43.8 µM) | < 1 µg/mL | 2 to 4 µg/mL (≈ 2.74 to 5.47 µM) | < 10 µM | 2 to 4 µg/mL (≈ 2.74 to 5.47 µM) | 2 to 4 µg/mL (≈ 2.74 to 5.47 µM) | 16 to 32 µg/mL (≈ 21.9 to 43.8 µM) | 16 to 32 µg/mL (≈ 21.9 to 43.8 µM) | – | – | –
O=C(NCCCN1CCN(C(=O)NC(C(=O)N[C@H]2Cc3ccc(F)c(C(=O)O)c3OB2O)c2cc(F)c(O)c(O)c2Cl)C(=O)C1=O)Nc1ccc(O)cc1 (stereo partly drawn) [Example 227, (3R)-3-(2-(2-chloro-5-fluoro-3,4-dihydroxyphenyl)-2-(4-(3-(3-(4-hydroxyphenyl)ureido)propyl)-2,3-dioxopiperazine-1-carboxamido)acetamido)-7-fluoro-2-hydroxy-3,4-dihydro-2H-benzo[e][1,2]oxaborinine-8-carboxylic acid] | > 64 µg/mL | < 1 µg/mL | < 1 µg/mL | < 10 µM | < 1 µg/mL | 2 to 4 µg/mL (≈ 2.58 to 5.16 µM) | 4 to 8 µg/mL (≈ 5.16 to 10.3 µM) | 4 to 8 µg/mL (≈ 5.16 to 10.3 µM) | – | – | –
O=C(O)c1c(F)ccc2c1OB(O)[C@@H](NC(=O)C(NC(=O)N1CCN(S(=O)(=O)CCNC(=O)[C@@H]3CCCN3)C1=O)c1cc(F)c(O)c(O)c1Cl)C2 (stereo partly drawn) [Example 265, (3R)-3-(2-(2-chloro-5-fluoro-3,4-dihydroxyphenyl)-2-(2-oxo-3-((2-((S)-pyrrolidine-2-carboxamido)ethyl)sulfonyl)imidazolidine-1-carboxamido)acetamido)-7-fluoro-2-hydroxy-3,4-dihydro-2H-benzo[e][1,2]oxaborinine-8-carboxylic acid] | – | < 1 µg/mL | < 1 µg/mL | < 10 µM | 2 to 4 µg/mL (≈ 2.64 to 5.27 µM) | 2 to 4 µg/mL (≈ 2.64 to 5.27 µM) | – | – | 16 to 32 µg/mL (≈ 21.1 to 42.2 µM) | 4 to 8 µg/mL (≈ 5.27 to 10.5 µM) | 16 to 32 µg/mL (≈ 21.1 to 42.2 µM)
O=C(CN1CCN(C(=O)N[C@@H](C(=O)N[C@H]2Cc3ccc(F)c(C(=O)O)c3OB2O)c2cc(F)c(O)c(O)c2Cl)C(=O)C1=O)NCc1nccs1 [Example 241, (R)-3-((R)-2-(2-chloro-5-fluoro-3,4-dihydroxyphenyl)-2-(2,3-dioxo-4-(2-oxo-2-((thiazol-2-ylmethyl)amino)ethyl)piperazine-1-carboxamido)acetamido)-7-fluoro-2-hydroxy-3,4-dihydro-2H-benzo[e][1,2]oxaborinine-8-carboxylic acid] | 16 to 32 µg/mL (≈ 21.7 to 43.4 µM) | 2 to 4 µg/mL (≈ 2.71 to 5.43 µM) | < 1 µg/mL | < 10 µM | < 1 µg/mL | 2 to 4 µg/mL (≈ 2.71 to 5.43 µM) | 4 to 8 µg/mL (≈ 5.43 to 10.9 µM) | 4 to 8 µg/mL (≈ 5.43 to 10.9 µM) | – | – | –
O=C(NCCN1CCN(C(=O)NC(C(=O)N[C@H]2Cc3ccc(F)c(C(=O)O)c3OB2O)c2cc(F)c(O)c(O)c2Cl)C1=O)c1nccs1 (stereo partly drawn) [Example 247, (3R)-3-(2-(2-chloro-5-fluoro-3,4-dihydroxyphenyl)-2-(2-oxo-3-(2-(thiazole-2-carboxamido)ethyl)imidazolidine-1-carboxamido)acetamido)-7-fluoro-2-hydroxy-3,4-dihydro-2H-benzo[e][1,2]oxaborinine-8-carboxylic acid] | – | < 1 µg/mL | < 1 µg/mL | < 10 µM | < 1 µg/mL | 2 to 4 µg/mL (≈ 2.82 to 5.64 µM) | – | – | > 64 µg/mL | 16 to 32 µg/mL (≈ 22.6 to 45.1 µM) | 16 to 32 µg/mL (≈ 22.6 to 45.1 µM)
O=C(CN1CCN(C(=O)NC(C(=O)N[C@H]2Cc3ccc(F)c(C(=O)O)c3OB2O)c2cc(F)c(O)c(O)c2Cl)C(=O)C1=O)Nc1nccs1 (stereo partly drawn) [Example 235, (3R)-3-(2-(2-chloro-5-fluoro-3,4-dihydroxyphenyl)-2-(2,3-dioxo-4-(2-oxo-2-(thiazol-2-ylamino)ethyl)piperazine-1-carboxamido)acetamido)-7-fluoro-2-hydroxy-3,4-dihydro-2H-benzo[e][1,2]oxaborinine-8-carboxylic acid] | 16 to 32 µg/mL (≈ 22.1 to 44.3 µM) | 2 to 4 µg/mL (≈ 2.77 to 5.53 µM) | < 1 µg/mL | < 10 µM | 2 to 4 µg/mL (≈ 2.77 to 5.53 µM) | 2 to 4 µg/mL (≈ 2.77 to 5.53 µM) | 4 to 8 µg/mL (≈ 5.53 to 11.1 µM) | 4 to 8 µg/mL (≈ 5.53 to 11.1 µM) | – | – | –
